Among the test systems are 786-0; CAKI-1; IGROV-1; KM12; M14; M19-MEL; MOLT-4; NCI-H23; NCI-H522; RPMI-8226; RXF 393; SNB-19; SW-620; TK-10; U-251; UO-31.
Common to all, as to assay: NCI-60 cell line screen, 48 h

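1) Cells in 96-well plates. 2) Compound, 48 h, 5 concentrations. 3) Linear interpolation between surrounding doses. 4) Unreached endpoint = highest concentration. GI50 marks 50% less growth.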 Active and inactive are the calls of the source. Rule as the data show it: active = GI50 up to about 1.1 µM and inactive = higher.

For `O=C(Nc1ccc(Sc2ccc(/N=N/c3c(O)c(S(=O)(=O)O)cc4cc(S(=O)(=O)O)ccc34)cc2)cc1)c1ccc(/N=N/c2c(O)c(S(=O)(=O)O)cc3cc(S(=O)(=O)O)ccc23)cc1`, the GI50 in the experiment on 786-0 is 43.6 µM (inactive); with CAKI-1 it was 37.4 µM (inactive); with IGROV-1 it was 35.6 µM (inactive); in the experiment on KM12, 33 µM (inactive); with M14, 24.9 µM (inactive); with M19-MEL it was 19.5 µM (inactive). In addition, the GI50 in the experiment with MOLT-4 is 9.25 µM (inactive); in the experiment with NCI-H23, 12.2 µM (inactive); with NCI-H522 it was 12.2 µM (inactive); in the experiment on RPMI-8226, 5.53 µM (inactive); in the experiment on RXF 393, 33.1 µM (inactive); in the experiment with SNB-19 it was 48.3 µM (inactive). Moreover, the GI50 with SW-620 was 28.3 µM (inactive); in the experiment on TK-10 it was 27.5 µM (inactive); with U-251, 35.2 µM (inactive); in the experiment on UO-31 it was 35.6 µM (inactive).
For the molecule `Cc1cc(Cl)ccc1NC(=O)CC1SC(NC(=O)c2ccccc2Cl)=NC1=O` (stereo not given), the GI50 was 19 µM (inactive) in the experiment with 786-0; 19.2 µM (inactive) with CAKI-1; 38.2 µM (inactive) in the experiment on IGROV-1; 17.1 µM (inactive) in the experiment on M14; 19.2 µM (inactive) in the experiment with M19-MEL; 2.89 µM (inactive) in the experiment on MOLT-4. Further, the GI50 with NCI-H23 was 50.2 µM (inactive); in the experiment with NCI-H522, 15.1 µM (inactive); in the experiment with RPMI-8226, 15.2 µM (inactive); with RXF 393 it was 17.7 µM (inactive); in the experiment with SNB-19, > 100 µM (inactive); with SW-620, 18 µM (inactive). For the same molecule, the figures for the GI50 in the experiment on TK-10, in the experiment on U-251 and in the experiment on UO-31 were > 10 µM (inactive), 15.7 µM (inactive) and 21.6 µM (inactive), respectively.
Consider `COC(=O)C(Cc1cc(OC)c(OC)c(OC)c1)C(=O)OC`, for which the GI50 with 786-0, in the experiment with CAKI-1, in the experiment on IGROV-1, in the experiment on KM12, in the experiment with M19-MEL and in the experiment with MOLT-4 was > 320 µM (inactive) in each case. The GI50 in the experiment on NCI-H23, in the experiment with NCI-H522, in the experiment with RPMI-8226, in the experiment on RXF 393, in the experiment with SW-620 and in the experiment with TK-10 was > 320 µM (inactive) each time. Further, the GI50 with U-251 is > 320 µM (inactive).
With `O=C(N/C(=C\c1cc(Cl)ccc1Cl)c1nc2c(O)nc(S)nc2[nH]1)c1ccccc1`, the GI50 in the experiment on 786-0 is 17.5 µM (inactive); with CAKI-1 it was 38.5 µM (inactive); in the experiment with IGROV-1, > 42.4 µM (inactive); in the experiment with KM12, 23.4 µM (inactive); with M14, 22.9 µM (inactive); in the experiment on M19-MEL, 27 µM (inactive). The GI50 in the experiment with MOLT-4 was 16.1 µM (inactive); with NCI-H23 it was 25.8 µM (inactive); in the experiment with NCI-H522, 38 µM (inactive); in the experiment on RPMI-8226, 12.6 µM (inactive); with RXF 393, 21.6 µM (inactive); in the experiment with SNB-19, > 55.2 µM (inactive). The GI50 in the experiment with SW-620 was 13.7 µM (inactive); with TK-10, > 75.3 µM (inactive); in the experiment on U-251, 32.1 µM (inactive); in the experiment on UO-31, 23.6 µM (inactive).
On to `COc1cccc(NC(=O)/C(CC(=O)CC(c2ccccc2)c2c(O)c3ccccc3oc2=O)=N\NC(C)(C)C)c1OC` (stereo not given), for which the GI50 with 786-0 is > 100 µM (inactive); in the experiment with CAKI-1, 36.1 µM (inactive); with IGROV-1, 64.3 µM (inactive); with KM12, 34 µM (inactive); with M14 it was 44.5 µM (inactive); with M19-MEL, > 100 µM (inactive). Further, the GI50 in the experiment on MOLT-4 was 28.7 µM (inactive); in the experiment with RPMI-8226, 29.3 µM (inactive); in the experiment with SNB-19, > 100 µM (inactive); in the experiment on SW-620, > 100 µM (inactive); in the experiment on TK-10, > 100 µM (inactive); with U-251, > 100 µM (inactive). Also, in the experiment on UO-31, the GI50 is 72.1 µM (inactive).
`CCOC(=O)/C=C1\Nc2ccccc2C(c2ccccc2)=NC1OC(C)=O` (stereo not given): the GI50 with 786-0 was > 100 µM (inactive); in the experiment on CAKI-1, 94.6 µM (inactive); in the experiment on IGROV-1, > 100 µM (inactive); in the experiment on KM12, > 100 µM (inactive); in the experiment with M14, > 100 µM (inactive); in the experiment on M19-MEL it was > 100 µM (inactive). Moreover, the GI50 with MOLT-4 is > 100 µM (inactive); in the experiment on NCI-H23 it was > 100 µM (inactive); in the experiment on NCI-H522 it was > 100 µM (inactive); with RPMI-8226, 76.6 µM (inactive); with SW-620, > 100 µM (inactive); with U-251, > 100 µM (inactive). In addition, the GI50 in the experiment with UO-31 is 44 µM (inactive).
As for `O=C(N/C(=C\c1ccc(/C=C(\NC(=O)c2ccccc2)c2nc3cc([N+](=O)[O-])ccc3[nH]2)cc1)c1nc2cc([N+](=O)[O-])ccc2[nH]1)c1ccccc1`, the GI50 is 42.4 µM (inactive) in the experiment with 786-0; > 100 µM (inactive) in the experiment with CAKI-1; 82.8 µM (inactive) with IGROV-1; 30.8 µM (inactive) with M14; 52.4 µM (inactive) in the experiment with M19-MEL; 11 µM (inactive) in the experiment with MOLT-4. The GI50 in the experiment with NCI-H23 was 25.4 µM (inactive); in the experiment with NCI-H522, 11.4 µM (inactive); with RPMI-8226 it was 12 µM (inactive); in the experiment with RXF 393 it was 24 µM (inactive); in the experiment on SNB-19 it was > 100 µM (inactive); with SW-620, 55.7 µM (inactive). The GI50 with TK-10 was 32.1 µM (inactive); in the experiment on U-251, 54.6 µM (inactive); in the experiment on UO-31, 46.7 µM (inactive).
For the molecule `Cc1cn2cc(-c3ccncc3)nc2s1`, the GI50 in the experiment with 786-0 is > 100 µM (inactive); with CAKI-1, > 100 µM (inactive); in the experiment with IGROV-1, > 100 µM (inactive); with KM12, > 100 µM (inactive); in the experiment on M14, > 100 µM (inactive); in the experiment on M19-MEL, > 86.7 µM (inactive). In addition, the GI50 with MOLT-4 was > 100 µM (inactive); with NCI-H23 it was > 100 µM (inactive); in the experiment with NCI-H522, > 100 µM (inactive); in the experiment with RPMI-8226, > 47.2 µM (inactive); in the experiment with SNB-19, > 100 µM (inactive); in the experiment with SW-620, > 50 µM (inactive). The GI50 in the experiment with TK-10, in the experiment on U-251 and with UO-31 was > 100 µM (inactive) throughout.
In the case of `O=C1CCC2(c3ccccc3)Nc3ccc(Cl)cc3N12` (stereo not given), the GI50 in the experiment on 786-0, in the experiment with CAKI-1, with IGROV-1, with KM12, with M14 and in the experiment on M19-MEL was > 100 µM (inactive) each time. Moreover, the GI50 with MOLT-4, in the experiment on NCI-H23, in the experiment with NCI-H522, in the experiment on RPMI-8226, in the experiment on RXF 393 and in the experiment on SW-620 was > 100 µM (inactive) in each case. In addition, the GI50 in the experiment on TK-10, in the experiment on U-251 and in the experiment on UO-31 was > 100 µM (inactive) throughout.
Turning to `COC(=O)CC1(O)C(=O)OCc2c1cc1n(c2=O)Cc2c-1nc1ccccc1c2OC` (stereo not given), the GI50 with 786-0 is 0.136 µM (active); with CAKI-1 it was 0.0673 µM (active); in the experiment with IGROV-1, 2.94 µM (inactive); with KM12, 5.27 µM (inactive); in the experiment with M14 it was 0.188 µM (active); with M19-MEL, 1.19 µM (inactive). Also, the GI50 with MOLT-4 is 0.017 µM (active); in the experiment with NCI-H23, 0.188 µM (active); in the experiment with NCI-H522, 0.29 µM (active); in the experiment on RPMI-8226, 0.582 µM (active); in the experiment on RXF 393, 0.508 µM (active); with SNB-19 it was 0.6 µM (active). The GI50 was 0.515 µM (active) in the experiment with SW-620, > 43.6 µM (inactive) in the experiment with TK-10, 0.0964 µM (active) in the experiment on U-251 and 1.04 µM (active) in the experiment with UO-31.
For `c1ccc(P(=Nc2ccccc2N=P(c2ccccc2)(c2ccccc2)c2ccccc2)(c2ccccc2)c2ccccc2)cc1`, the GI50 in the experiment with 786-0 is 0.555 µM (active); with CAKI-1, 0.444 µM (active); in the experiment with IGROV-1, 0.498 µM (active); in the experiment on KM12, 0.834 µM (active); in the experiment on M14 it was 1.44 µM (inactive); in the experiment with M19-MEL, 0.818 µM (active). Besides, the GI50 in the experiment with NCI-H23 is 0.337 µM (active); in the experiment on NCI-H522 it was 0.274 µM (active); in the experiment on RPMI-8226, 1.74 µM (inactive); in the experiment with RXF 393, 1.05 µM (active); in the experiment on SNB-19, 0.333 µM (active); in the experiment on SW-620, 3.07 µM (inactive). Further, the GI50 with TK-10 was 0.54 µM (active); in the experiment on U-251, 0.326 µM (active); with UO-31, 2.31 µM (inactive).
With `COC(=O)c1cc(Cl)ccc1NC(=O)c1ccc([N+](=O)[O-])cc1`, the GI50 was 14.6 µM (inactive) in the experiment on 786-0; 15.3 µM (inactive) with CAKI-1; 19.8 µM (inactive) in the experiment on IGROV-1; 19.8 µM (inactive) with KM12; 29 µM (inactive) in the experiment with M14; 40.7 µM (inactive) in the experiment on M19-MEL. The GI50 is 35.6 µM (inactive) in the experiment on MOLT-4; 18.8 µM (inactive) in the experiment with NCI-H23; 20.2 µM (inactive) in the experiment on RPMI-8226; 21.4 µM (inactive) in the experiment on RXF 393; 29.9 µM (inactive) in the experiment with SW-620; 16.9 µM (inactive) with TK-10. For the same molecule, the values for the GI50 in the experiment with U-251 and in the experiment on UO-31 were 7 µM (inactive) and 17.2 µM (inactive), respectively.
Take `Cc1c(C(=O)/C=C/c2ccccc2[N+](=O)[O-])[n+]([O-])c2ccccc2[n+]1[O-]`: the GI50 in the experiment on 786-0 is 5.53 µM (inactive); with CAKI-1, 3.61 µM (inactive); in the experiment with IGROV-1, 10.6 µM (inactive); in the experiment with KM12, 10.3 µM (inactive); with M14, 11 µM (inactive); in the experiment with M19-MEL, 5.97 µM (inactive). In addition, the GI50 in the experiment on MOLT-4 was 5.5 µM (inactive); with NCI-H23 it was 4.63 µM (inactive); in the experiment with NCI-H522, 3.94 µM (inactive); with RPMI-8226, 2.96 µM (inactive); with SNB-19 it was 19.1 µM (inactive); in the experiment on SW-620, 5.13 µM (inactive). Besides, the results for the GI50 in the experiment on U-251 and in the experiment on UO-31 were 15.2 µM (inactive) and 18.8 µM (inactive), respectively.

The values are drawn from ChEMBL document CHEMBL1201862, “PubChem BioAssay data set” (2004).
